Source: patent publication US20080207667A1 (priority 2007, published 2008)

Legend:
[1] = nalbuphine and its salts; cited from earlier work
[2] = test system: subject suffering from a respiratory disorder (former smoker); experiment: Spirometry pre and post treatment with nebulized nalbuphine (Example 1); format: in vivo, human; conditions: for FEF (25–75%) % of Prediction / FEF (25–75%) (L/S) Actual / FEV1 % of Prediction / FEV1 (L) Actual / FEV1/FVC % of Prediction / FEV1/FVC (%) Actual / FVC % of Prediction / FVC (L) Actual / PEF % of Prediction / PEF (L/S) Actual / FEF (25–75%) % Change / FEV1 % Change / FEV1/FVC % Change / FVC % Change / PEF % Change: post nebulized nalbuphine
Text: This example illustrates the use of nalbuphine to treat a subject suffering from a respiratory disorder. The subject was a former smoker. Spirometry measurements were taken pre and post treatment with nebulized nalbuphine.

smoker = experiment: Spirometry pre and post treatment with nebulized nalbuphine (Example 3); format: in vivo, human
Text: Spirometry measurements were taken pre and post treatment with nebulized nalbuphine.

asthmatic = experiment: Spirometry pre and post treatment with nebulized nalbuphine (Example 2); format: in vivo, human
Procedure: In this example, an asthmatic taking advair diskus for treatment of asthma was treated with nalbuphine according to the present method. Spirometry measurements were taken pre and post treatment with nebulized nalbuphine.

[3] = Treatment #1, vs pre-nalbuphine
[4] = Treatment #1, vs pre-nalbuphine, listed as nalbuphine
[5] = Treatment #2, vs pre-nalbuphine
[6] = Treatment #3, vs pre-nalbuphine
[7] = post nebulized nalbuphine vs pre-nalbuphine
[8] = smoker treated with combivent and spiriva, post nebulized nalbuphine
[9] = asthmatic taking advair diskus, post nebulized nalbuphine

## Oc1ccc2c3c1O[C@H]1[C@@H](O)CC[C@@]4(O)[C@@H](C2)N(CC2CCC2)CC[C@]314 [Nalbuphine, nalbuphine]
[1]
  solubility in water: sparingly soluble in water
[2]; Treatment #1
  FEF (25–75%) % of Prediction: 130%
  FEF (25–75%) (L/S) Actual: 5.043 L/S
  FEV1 % of Prediction: 139%
  FEV1 (L) Actual: 4.223 L
  FEV1/FVC % of Prediction: 106%
  FEV1/FVC (%) Actual: 84%
  FVC % of Prediction: 133%
  FVC (L) Actual: 5.035 L
  PEF % of Prediction: 93%
  PEF (L/S) Actual: 5.98 L/S
[2]; [3]
  FEF (25–75%) % Change: 37.50%
  FEV1 % Change: 46%
  FEV1/FVC % Change: 2%
  FVC % Change: 44.0%
  PEF % Change: −6.4%
[2]; [4]
  FEV1 % Change: forty six
  FVC % Change: forty-four
[2]; Treatment #2
  FEF (25–75%) % of Prediction: 137%
  FEF (25–75%) (L/S) Actual: 5.327 L/S
  FEV1 % of Prediction: 134%
  FEV1 (L) Actual: 4.259 L
  FEV1/FVC % of Prediction: 107%
  FEV1/FVC (%) Actual: 84%
  FVC % of Prediction: 127%
  FVC (L) Actual: 4.827 L
  PEF % of Prediction: 113%
  PEF (L/S) Actual: 7.297 L/S
[2]; [5]
  FEF (25–75%) % Change: 45%
  FEV1 % Change: 40%
  FEV1/FVC % Change: 2%
  FVC % Change: 38%
  PEF % Change: 14%
[2]; Treatment #3
  FEF (25–75%) % of Prediction: 129%
  FEF (25–75%) (L/S) Actual: 4.998 L/S
  FEV1 % of Prediction: 136%
  FEV1 (L) Actual: 4.11 L
  FEV1/FVC % of Prediction: 110%
  FEV1/FVC (%) Actual: 87%
  FVC % of Prediction: 125%
  FVC (L) Actual: 4.733 L
  PEF % of Prediction: 112%
  PEF (L/S) Actual: 7.225 L/S
[2]; [6]
  FEF (25–75%) % Change: 36%
  FEV1 % Change: 42%
  FEV1/FVC % Change: 6%
  FVC % Change: 35%
  PEF % Change: 13%
[2]; summary in words
  lung capacity and airflow after treatment: marked improvement in lung capacity and airflow
smoker; [7]
  FEV1 % Change: 39%
  FVC % Change: 34%
smoker; [8]
  FEV1 % of Prediction: 84%
  FEV1 (L) Actual: 2.745 L
  FVC % of Prediction: 78%
  FVC (L) Actual: 3.285 L
smoker; summary in words
  lung capacity and airflow after treatment: marked improvement in lung capacity and airflow
asthmatic; [9]
  FEV1 % of Prediction: 35%
  FEV1 (L) Actual: 0.555 L
  FVC % of Prediction: 54%
  FVC (L) Actual: 1.155 L
asthmatic; [7]
  FEV1 % Change: 48%
  FVC % Change: 35%
asthmatic; summary in words
  FVC and FEV1 after treatment: dramatic increase in FVC and FEV1
